Assay results as given in ChEMBL document CHEMBL1909046, “DrugMatrix in vitro pharmacology data”.
pIC50, pKi: −log10 of the molar value.

What was measured:
[1] = DRUGMATRIX: GABAA, Muscimol, Central radioligand binding (ligand: [3H] Muscimol); assay type: cell membranes, Rattus norvegicus, Wistar, Brain, Membrane; conditions: Not Active = under 50% inhibition at 10 µM
[2] = DRUGMATRIX: GABAA, Chloride Channel, TBOB radioligand binding (ligand: [3H] TBOB); assay type: cell membranes, Rattus norvegicus, Wistar, Cerebral cortex, Membrane; conditions: Not Active = under 50% inhibition at 10 µM
[3] = target: Glycine receptor (Rattus norvegicus, UniProt P22771+P24524+P07727+P20781); assay type: cell membranes, Wistar, Spinal cord, Membrane; also: in other assays of this panel Not Active means under 50% inhibition at 10 µM
[4] = target: Protein kinase C alpha type (Homo sapiens, UniProt P17252); assay type: cell-based; conditions: sf9;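 also: inhibition of PKCalpha kinase activity measured in an enzyme assay with histone as the phosphorylation substrate; in other assays of this panel Not Active means under 50% inhibition at 10 µM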
[5] = target: T1, Type-2 angiotensin II receptor (Homo sapiens, UniProt P50052); experiment: biochemical; assay type: cell-based, CHO-K1; conditions: cho-k1; also: in other assays of this panel Not Active means under 50% inhibition at 10 µM
T1 sequence (P50052 whole entry): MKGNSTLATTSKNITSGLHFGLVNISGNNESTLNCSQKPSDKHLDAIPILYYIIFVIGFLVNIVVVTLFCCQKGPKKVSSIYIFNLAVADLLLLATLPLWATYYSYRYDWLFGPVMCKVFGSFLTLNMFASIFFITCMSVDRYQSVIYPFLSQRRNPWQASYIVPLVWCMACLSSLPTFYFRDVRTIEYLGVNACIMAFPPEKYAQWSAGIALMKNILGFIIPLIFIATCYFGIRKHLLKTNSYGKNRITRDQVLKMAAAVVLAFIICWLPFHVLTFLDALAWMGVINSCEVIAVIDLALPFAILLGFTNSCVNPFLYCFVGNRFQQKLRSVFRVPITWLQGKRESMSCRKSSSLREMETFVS

[6] = target: 5-hydroxytryptamine receptor 1B (Rattus norvegicus, UniProt P28564); assay type: cell membranes, Wistar, Cerebral cortex, Membrane; also: in other assays of this panel Not Active means under 50% inhibition at 10 µM
Sequence of 5-hydroxytryptamine receptor 1B (P28564 whole entry): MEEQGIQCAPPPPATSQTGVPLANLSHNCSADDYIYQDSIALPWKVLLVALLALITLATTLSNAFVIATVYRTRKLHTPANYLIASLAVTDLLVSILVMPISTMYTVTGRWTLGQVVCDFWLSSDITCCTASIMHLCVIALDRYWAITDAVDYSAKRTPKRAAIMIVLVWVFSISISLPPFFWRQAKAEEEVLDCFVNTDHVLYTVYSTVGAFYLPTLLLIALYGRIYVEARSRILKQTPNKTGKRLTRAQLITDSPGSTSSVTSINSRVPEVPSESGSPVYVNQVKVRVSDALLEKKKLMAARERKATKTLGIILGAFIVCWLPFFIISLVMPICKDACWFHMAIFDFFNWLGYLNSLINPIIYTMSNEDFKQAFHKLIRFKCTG

[7] = target: T2, Cysteinyl leukotriene receptor 1 (Homo sapiens, UniProt Q9Y271); assay type: cell membranes, Membrane; conditions: cho-k1; also: in other assays of this panel Not Active means under 50% inhibition at 10 µM
T2 sequence (Q9Y271 whole entry): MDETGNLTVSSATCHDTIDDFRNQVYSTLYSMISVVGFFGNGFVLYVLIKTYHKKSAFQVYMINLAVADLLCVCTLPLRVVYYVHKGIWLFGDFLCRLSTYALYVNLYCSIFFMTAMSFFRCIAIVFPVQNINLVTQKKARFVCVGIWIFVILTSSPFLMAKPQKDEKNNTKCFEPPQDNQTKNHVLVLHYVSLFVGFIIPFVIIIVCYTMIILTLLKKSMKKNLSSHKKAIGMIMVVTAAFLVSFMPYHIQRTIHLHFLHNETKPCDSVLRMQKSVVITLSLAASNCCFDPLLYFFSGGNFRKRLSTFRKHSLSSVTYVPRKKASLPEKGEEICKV

[8] = target: Sodium-dependent dopamine transporter (Homo sapiens, UniProt Q01959); experiment: DRUGMATRIX: Dopamine Transporter radioligand binding (ligand: [125I] RTI-55); assay type: cell membranes, CHO-K1, Membrane; conditions: Not Active = under 50% inhibition at 10 µM; for IC50: cho-k1
Sequence of Sodium-dependent dopamine transporter (Q01959 whole entry): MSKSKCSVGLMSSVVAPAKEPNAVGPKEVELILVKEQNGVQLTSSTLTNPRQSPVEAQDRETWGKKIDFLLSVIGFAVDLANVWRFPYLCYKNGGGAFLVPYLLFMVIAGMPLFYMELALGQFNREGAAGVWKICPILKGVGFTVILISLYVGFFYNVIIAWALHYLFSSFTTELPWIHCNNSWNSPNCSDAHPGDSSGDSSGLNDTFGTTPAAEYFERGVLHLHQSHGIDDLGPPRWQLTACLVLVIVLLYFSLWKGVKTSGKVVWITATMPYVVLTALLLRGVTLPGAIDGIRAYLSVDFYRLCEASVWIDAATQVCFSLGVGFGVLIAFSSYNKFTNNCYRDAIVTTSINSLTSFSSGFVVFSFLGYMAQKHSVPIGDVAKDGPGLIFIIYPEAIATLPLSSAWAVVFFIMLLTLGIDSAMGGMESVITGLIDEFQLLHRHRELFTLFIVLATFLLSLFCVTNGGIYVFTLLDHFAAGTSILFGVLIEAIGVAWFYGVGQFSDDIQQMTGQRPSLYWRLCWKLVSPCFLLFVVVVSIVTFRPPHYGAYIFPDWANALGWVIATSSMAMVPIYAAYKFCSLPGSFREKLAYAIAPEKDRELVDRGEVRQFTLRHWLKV

| SMILES | IC50 [1] | Ki [1] | IC50 [2] | Ki [2] | IC50 [3] | IC50 [4] | IC50 [5] | IC50 [6] | IC50 [7] | pIC50 ([8]; read-out: IC50) | pKi ([8]; read-out: Ki) | IC50 [8] |
| --- | --- | --- | --- | --- | --- | --- | --- | --- | --- | --- | --- | --- |
| O=c1c(-c2ccc(O)cc2)coc2cc(O)cc(O)c12 [GENISTEIN] | Not Active | Not Active | Not Active | Not Active | Not Active | Not Active | Not Active | Not Active | Not Active | 4.77 | 4.87 | – |
| CCC1=C(C)CN(C(=O)NCCc2ccc(S(=O)(=O)NC(=O)N[C@H]3CC[C@H](C)CC3)cc2)C1=O [GLIMEPIRIDE] | Not Active | Not Active | Not Active | Not Active | Not Active | Not Active | Not Active | Not Active | Not Active | – | – | Not Active |
| Nc1cc(-c2ccncc2)c[nH]c1=O [INAMRINONE] | Not Active | Not Active | Not Active | Not Active | Not Active | Not Active | Not Active | Not Active | Not Active | – | – | Not Active |
| CCCCC1=NC2(CCCC2)C(=O)N1Cc1ccc(-c2ccccc2-c2nnn[nH]2)cc1 [IRBESARTAN] | Not Active | Not Active | Not Active | Not Active | Not Active | Not Active | Not Active | Not Active | Not Active | – | – | Not Active |
| CN1CCC(=C2c3ccccc3CC(=O)c3sccc32)CC1 [KETOTIFEN] | Not Active | Not Active | Not Active | Not Active | Not Active | Not Active | Not Active | Not Active | Not Active | – | – | Not Active |
| N[C@@H](Cn1ccc(=O)c(O)c1)C(=O)O [L-MIMOSINE] | Not Active | Not Active | Not Active | Not Active | Not Active | Not Active | Not Active | Not Active | Not Active | – | – | Not Active |
| C[N+](C)(C)C[C@H](O)CC(=O)[O-] [LEVOCARNITINE] | Not Active | Not Active | Not Active | Not Active | Not Active | Not Active | Not Active | Not Active | Not Active | – | – | Not Active |
| C[C@H]1COc2c(N3CCN(C)CC3)c(F)cc3c(=O)c(C(=O)O)cn1c23.C[C@H]1COc2c(N3CCN(C)CC3)c(F)cc3c(=O)c(C(=O)O)cn1c23.O [LEVOFLOXACIN] | Not Active | Not Active | Not Active | Not Active | Not Active | Not Active | Not Active | Not Active | Not Active | – | – | Not Active |
| CCn1cc(C(=O)O)c(=O)c2cc(F)c(N3CCNC(C)C3)c(F)c21 (stereo unspecified) [LOMEFLOXACIN] | Not Active | Not Active | Not Active | Not Active | Not Active | Not Active | Not Active | Not Active | Not Active | – | – | Not Active |
| CN1CCCC(CN2c3ccccc3Sc3ccccc32)C1 (stereo unspecified) [MEPAZINE] | Not Active | Not Active | Not Active | Not Active | Not Active | Not Active | Not Active | Not Active | Not Active | – | – | Not Active |
| Cc1cccc(C)c1NC(=O)C1CCCCN1C (stereo unspecified) [MEPIVACAINE] | Not Active | Not Active | Not Active | Not Active | Not Active | Not Active | Not Active | Not Active | Not Active | – | – | Not Active |
| CN(C)C(=N)NC(=N)N [METFORMIN] | Not Active | Not Active | Not Active | Not Active | Not Active | Not Active | Not Active | Not Active | Not Active | – | – | Not Active |
